The target of assay [1] is T1, KRASG12D (Homo sapiens, UniProt P01116, G12D).
T1 construct: made in house; host or cells: E. coli BL21 (DE3)
Nature of the assay: Bio-Biochem-PPI-HTRF Ras-SOS1 interaction assay (KRAS G12D). In kind it is biochemical. Conditions: 5 nM. In outline:
(§1)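 Compounds tested in duplicate (10 μM to 0.01 μM) for disruption of His-hSOS1 binding to GST-tagged wild-type or G12D K-Ras in HEPES pH 7.4 buffer. TR-FRET read (Eu donor, XL665 acceptor) after about 10 min or longer; IC50 derived from the 665/620 nm emission ratio.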

In assay [2] the target is T2, KRASwt (Homo sapiens, UniProt P01116).
T2 construct: made in house; host or cells: E. coli BL21 (DE3)
T2 sequence (P01116 1-188 isoform P01116-2): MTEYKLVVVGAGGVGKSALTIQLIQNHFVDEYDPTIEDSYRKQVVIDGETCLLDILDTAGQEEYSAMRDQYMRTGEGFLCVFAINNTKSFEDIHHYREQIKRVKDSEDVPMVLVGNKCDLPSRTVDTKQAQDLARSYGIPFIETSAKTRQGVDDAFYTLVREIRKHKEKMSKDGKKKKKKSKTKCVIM
As to the kind of experiment: Bio-Biochem-PPI-HTRF Ras-SOS1 interaction assay (KRAS wt). It counts as biochemical. Conditions: 5 nM. In outline:
as §1
A general note: In TR-FRET formats the signal depends on donor and acceptor labels being close together.

pIC50: −log10 of the molar value. Bounds are passed on as bounds.

T1 sequence (P01116 1-188 isoform P01116-2 G12D): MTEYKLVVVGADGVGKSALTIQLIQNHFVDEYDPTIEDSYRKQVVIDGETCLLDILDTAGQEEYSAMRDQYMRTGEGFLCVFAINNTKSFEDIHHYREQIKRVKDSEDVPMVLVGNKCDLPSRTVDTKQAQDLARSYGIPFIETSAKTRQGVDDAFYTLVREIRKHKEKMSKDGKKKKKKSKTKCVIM

With `C#Cc1c(F)ccc2cc(O)cc(-c3ccc4c(N5CCCC6(CNC6)C5)nc(OC[C@@]56CCCN5C[C@H](F)C6)nc4c3F)c12` [compound 161, 5-ethynyl-6-fluoro-4-(8-fluoro-2-(((2R,7aS)-2-fluorotetrahydro-1H-pyrrolizin-7a(5H)-yl)methoxy)-4-(2,6-diazaspiro[3.5]nonan-6-yl)quinazolin-7-yl)naphthalen-2-ol], the pIC50 in assay [1] and in assay [2] was > 5.30 each time.

As for `N#Cc1c(N)sc2c(F)ccc(-c3c(Cl)cc4c(N5CCOC6(CN(C(=O)c7cn[nH]n7)C6)C5)nc(OC[C@@]56CCCN5C[C@H](F)C6)nc4c3F)c12` [compound 163, 4-(4-(2-(2H-1,2,3-triazole-4-carbonyl)-5-oxa-2,8-diazaspiro[3.5]nonan-8-yl)-6-chloro-8-fluoro-2-(((2R,7aS)-2-fluorotetrahydro-1H-pyrrolizin-7a(5H)-yl)methoxy)quinazolin-7-yl)-2-amino-7-fluorobenzo[b]thiophene-3-carbonitrile], the negative-log IC50 (pIC50) in assay [1] and in assay [2] was > 5.30 throughout.

For `C#Cc1c(F)ccc2cc(O)cc(-c3ncc4c(N5CCCC6(CN(C(=O)[C@@H]7C[C@H]7C#N)C6)C5)nc(OC[C@@]56CCCN5C[C@H](F)C6)nc4c3F)c12` [compound 164, (1R,2R)-2-(6-(7-(8-ethynyl-7-fluoro-3-hydroxynaphthalen-1-yl)-8-fluoro-2-(((2R,7aS)-2-fluorotetrahydro-1H-pyrrolizin-7a(5H)-yl)methoxy)pyrido [4,3-d]pyrimidin-4-yl)-2,6-diazaspiro[3.5]nonane-2-carbonyl)cyclopropane-1-carbonitrile], the negative logarithm of the IC50 (pIC50) in assay [1] and in assay [2] was > 5.30 in each case.

With `CC(=O)N1CC2(CCN(c3nc(OC[C@@]45CCCN4C[C@H](F)C5)nc4c(F)c(-c5ccc(F)c6sc(N)nc56)c(Cl)cc34)CC2)C1` [compound 165, 1-(7-(7-(2-amino-7-fluorobenzo[d]thiazol-4-yl)-6-chloro-8-fluoro-2-(((2R,7aS)-2-fluorotetrahydro-1H-pyrrolizin-7a(5H)-yl)methoxy)quinazolin-4-yl)-2,7-diazaspiro[3.5]nonan-2-yl)ethan-1-one], the pIC50 in assay [1] and in assay [2] was > 5.30 in each case.

Consider `CC1(C)CN(c2nc(OC[C@@]34CCCN3C[C@H](F)C4)nc3c(F)c(-c4ccc(F)c5sc(N)nc45)c(Cl)cc23)CC2(CNC2)O1` [compound 166, 4-(6-chloro-4-(6,6-dimethyl-5-oxa-2,8-diazaspiro[3.5]nonan-8-yl)-8-fluoro-2-(((2R,7aS)-2-fluorotetrahydro-1H-pyrrolizin-7a(5H)-yl)methoxy)quinazolin-7-yl)-7-fluorobenzo[d]thiazol-2-amine], for which the negative-log IC50 (pIC50) in assay [1] and in assay [2] was > 5.30 throughout.

In the case of `N#Cc1c(N)sc2c(F)ccc(-c3c(Cl)cc4c(N5CC(F)(F)OC6(CN(C(=O)C7CC7(F)F)C6)C5)nc(OC[C@@]56CCCN5C[C@H](F)C6)nc4c3F)c12` (stereo partly drawn) [compound 167, 2-amino-4-(6-chloro-4-(2-(2,2-difluorocyclopropane-1-carbonyl)-6,6-difluoro-5-oxa-2,8-diazaspiro [3.5]nonan-8-yl)-8-fluoro-2-(((2R,7aS)-2-fluorotetrahydro-1H-pyrrolizin-7a(5H)-yl)methoxy)quinazolin-7-yl)-7-fluorobenzo[b] thiophene-3-carbonitrile], the negative logarithm of the IC50 (pIC50) in assay [1] and in assay [2] was > 5.30 throughout.

As for `Nc1nc2c(-c3c(Cl)cc4c(N5CCC6(CC5)CN(C(=O)C(F)(F)F)C6)nc(OC[C@@]56CCCN5C[C@H](F)C6)nc4c3F)ccc(F)c2s1` [compound 168, 1-(7-(7-(2-amino-7-fluorobenzo[d]thiazol-4-yl)-6-chloro-8-fluoro-2-(((2R,7aS)-2-fluorotetrahydro-1H-pyrrolizin-7a(5H)-yl)methoxy)quinazolin-4-yl)-2,7-diazaspiro[3.5]nonan-2-yl)-2,2,2-trifluoroethan-1-one], the pIC50 (as a rule, the IC50 on a negative log10 scale, so that one unit is a factor of ten) in assay [1] is ≤ 5.30; in assay [2], > 5.30.

`CC(=O)N1CC2(CCCN(c3nc(OC[C@@]45CCCN4C[C@H](F)C5)nc4c(F)c(-c5ccc(F)c6sc(N)c(C#N)c56)c(Cl)cc34)C2)C1` [compound 169, 4-(4-(2-acetyl-2,6-diazaspiro[3.5]nonan-6-yl)-6-chloro-8-fluoro-2-(((2R,7aS)-2-fluorotetrahydro-1H-pyrrolizin-7a(5H)-yl)methoxy)quinazolin-7-yl)-2-amino-7-fluorobenzo[b]thiophene-3-carbonitrile]: the pIC50 in assay [1] and in assay [2] was > 5.30 throughout.

As to `C#Cc1c(F)ccc2cc(O)cc(-c3nc4c(cc3F)c(N3CCOC5(CNC5)C3)nc(=O)n4-c3c(C)ccnc3C(C)C)c12` [compound 170, 7-(8-ethynyl-7-fluoro-3-hydroxynaphthalen-1-yl)-6-fluoro-1-(2-isopropyl-4-methylpyridin-3-yl)-4-(5-oxa-2,8-diazaspiro[3.5]nonan-8-yl)pyrido[2,3-d]pyrimidin-2(1H)-one], the pIC50 in assay [1] and in assay [2] was ≤ 5.30 each time.

For `N#Cc1c(N)sc2c(F)ccc(-c3c(Cl)cc4c(N5CCC6(CC5)CN(C(=O)C5CC5(F)F)CCO6)nc(OC[C@@]56CCCN5C[C@H](F)C6)nc4c3F)c12` (stereo partly drawn) [compound 171, 2-amino-4-(6-chloro-4-(4-(2,2-difluorocyclopropane-1-carbonyl)-1-oxa-4,9-diazaspiro[5.5]undecan-9-yl)-8-fluoro-2-(((2R,7aS)-2-fluorotetrahydro-1H-pyrrolizin-7a(5H)-yl)methoxy)quinazolin-7-yl)-7-fluorobenzo[b]thiophene-3-carbonitrile], the negative logarithm of the IC50 (pIC50) in assay [1] and in assay [2] was > 5.30 throughout.

On to `CN1CCC[C@H]1COc1nc(N2CCCC3(CNC3)C2)c2cc(Cl)c(-c3cccc4sc(N)nc34)c(F)c2n1` [compound 172, 4-(6-chloro-8-fluoro-2-(((S)-1-methylpyrrolidin-2-yl)methoxy)-4-(2,6-diazaspiro[3.5]nonan-6-yl)quinazolin-7-yl)benzo[d]thiazol-2-amine], for which the pIC50 in assay [1] and in assay [2] was > 5.30 in each case.

Regarding `N#Cc1c(N)sc2c(F)ccc(-c3c(Cl)cc4c(N5CCCC6(CN(C=O)C6)C5)nc(OC[C@@]56CCCN5C[C@H](F)C6)nc4c3F)c12` [compound 173, 2-amino-4-(6-chloro-8-fluoro-2-(((2R,7aS)-2-fluorotetrahydro-1H-pyrrolizin-7a(5H)-yl)methoxy)-4-(2-formyl-2,6-diazaspiro[3.5]nonan-6-yl)quinazolin-7-yl)-7-fluorobenzo[b]thiophene-3-carbonitrile], the pIC50 in assay [1] and in assay [2] was > 5.30 throughout.

With `N#Cc1c(N)sc2c(F)ccc(-c3c(Cl)cc4c(N5CCOC6(CNC6)C5)nc(OC[C@@]56CCCN5C[C@H](F)C6)nc4c3F)c12` [compound 175, 2-amino-4-(6-chloro-8-fluoro-2-(((2R,7aS)-2-fluorotetrahydro-1H-pyrrolizin-7a(5H)-yl)methoxy)-4-(5-oxa-2,8-diazaspiro[3.5]nonan-8-yl)quinazolin-7-yl)-7-fluorobenzo[b]thiophene-3-carbonitrile], the pIC50 in assay [1] and in assay [2] was > 5.30 each time.

In the case of `N#CN1CC2(CCCN(c3nc(OC[C@@]45CCCN4C[C@H](F)C5)nc4c(F)c(-c5ccc(F)c6sc(N)nc56)c(Cl)cc34)C2)C1` [compound 177, 6-(7-(2-amino-7-fluorobenzo [d]thiazol-4-yl)-6-chloro-8-fluoro-2-(((2R,7aS)-2-fluorotetrahydro-1H-pyrrolizin-7a(5H)-yl)methoxy)quinazolin-4-yl)-2,6-diazaspiro[3.5]nonane-2-carbonitrile], the negative-log IC50 (pIC50) in assay [1] and in assay [2] was > 5.30 each time.

In the case of `CN(C)C/C=C/C(=O)N1CC2(C1)CN(c1nc(OC[C@@]34CCCN3C[C@H](F)C4)nc3c(F)c(-c4ccc(F)c5sc(N)nc45)c(Cl)cc13)CCO2` [compound 178, (E)-1-(8-(7-(2-amino-7-fluorobenzo[d]thiazol-4-yl)-6-chloro-8-fluoro-2-(((2R,7aS)-2-fluorotetrahydro-1H-pyrrolizin-7a(5H)-yl)methoxy)quinazolin-4-yl)-5-oxa-2,8-diazaspiro[3.5]nonan-2-yl)-4-(dimethylamino)but-2-en-1-one], the negative logarithm of the IC50 (pIC50) in assay [1] and in assay [2] was > 5.30 each time.

As for `Nc1nc2c(-c3c(Cl)cc4c(N5CCOC6(C5)CN(S(=O)(=O)F)C6)nc(OC[C@@]56CCCN5C[C@H](F)C6)nc4c3F)ccc(F)c2s1` [compound 179, 8-(7-(2-amino-7-fluorobenzo[d]thiazol-4-yl)-6-chloro-8-fluoro-2-(((2R,7aS)-2-fluorotetrahydro-1H-pyrrolizin-7a(5H)-yl)methoxy)quinazolin-4-yl)-5-oxa-2,8-diazaspiro[3.5]nonane-2-sulfonyl fluoride], the pIC50 is ≤ 5.30 in assay [1] and > 5.30 in assay [2].

Take `CC1(C)CN(c2nc(OC[C@@]34CCCN3C[C@H](F)C4)nc3c(F)c(-c4ccc(F)c5sc(N)nc45)c(Cl)cc23)CC2(CN(C#N)C2)O1` [compound 180, 8-(7-(2-amino-7-fluorobenzo[d]thiazol-4-yl)-6-chloro-8-fluoro-2-(((2R,7aS)-2-fluorotetrahydro-1H-pyrrolizin-7a(5H)-yl)methoxy)quinazolin-4-yl)-6,6-dimethyl-5-oxa-2,8-diazaspiro[3.5] nonane-2-carbonitrile]: the negative logarithm of the IC50 (pIC50) in assay [1] was ≤ 5.30; in assay [2], > 5.30.

For `CN(C)C/C=C/C(=O)N1CC2(CCCN(c3nc(OC[C@@]45CCCN4C[C@H](F)C5)nc4c(F)c(-c5ccc(F)c6sc(N)nc56)c(Cl)cc34)C2)C1` [compound 181, (E)-1-(6-(7-(2-amino-7-fluorobenzo[d]thiazol-4-yl)-6-chloro-8-fluoro-2-(((2R,7aS)-2-fluorotetrahydro-1H-pyrrolizin-7a(5H)-yl)methoxy)quinazolin-4-yl)-2,6-diazaspiro[3.5]nonan-2-yl)-4-(dimethylamino)but-2-en-1-one], the negative-log IC50 (pIC50) in assay [1] and in assay [2] was > 5.30 in each case.

(Values after patent US20240109918A1, “HETEROCYCLIC COMPOUNDS AND USES THEREOF” (Kumquat Biosciences Inc., priority 2022, published 2024).)
